1 molecule from article PMC7659979, “Discovery and Evaluation of Enantiopure 9H-pyrimido[4,5-b]indoles as Nanomolar GSK-3β Inhibitors with Improved Metabolic Stability” (International Journal of Molecular Sciences, 2020) can be followed below.

A short description of the data set: Microsomal stability assay (pooled male and female HLM, LC-MS). In kind it is in vitro ADME, human. The conditions noted are these: HLM, incubation time of 120 min. As to the method: To this end, the compounds were incubated with pooled male and female HLM for 120 min, and the compound degradation as well as the formation of metabolites was monitored by liquid chromatography-mass spectrometry (LC-MS) analysis.
The inhibitory activity of the final compounds on GSK-3β was determined by the Promega ADP-Glo™ Kinase assay (Promega Corporation, Madison, WI 53711, USA), which was performed in white, non-treated 384-well plates (Corning). The experiments were carried out as quadruplicates using a concentration of 0.58 ng/µL of recombinant human GSK-3β, 0.2 µg/µL GSK-3 substrate G50-58 […]
(sequence: […](pS)EDEEE) and 25 µM ATP in the presence of serial dilutions of the final compounds. In addition, two control experiments with uninhibited kinase and two blank experiments with ATP/substrate solution were performed.
In detail, the kinase was pre-incubated with the final compounds for 10 min at rt. Then substrate/ATP was added to start the reaction, which was run for 1 h at rt. The next steps consisted of addition of ADP-Glo™ reagent (5 µL, then 1 h incubation) and Kinase detection reagent (10 µL, then 30 min incubation). Finally, the luminescence was measured on a FilterMax F5 microplate reader (Molecular Devices) (integration time 500 ms). GraphPad Prism v. 7.03. was used to normalize the raw data to the values of the control and blank experiments and generate absolute IC 50 values.
2. Interaction Frequencies of (R)-2 and (R)-28 in the 1 µs Molecular Dynamics Simulations
Figure S1. Observed interactions of (R)-2 (a) and (R)-28 (b) in the MD simulations. Both ligands […]
mediates water-bridged interactions to Asp200 or Ser66. Interactions with >10% frequency are shown.
3. Microsomal Stability Assay
Pooled male and female human liver microsomes (HLMs) (Lot: SLBQ7487V) were purchased from Merck (Schnelldorf, Germany). […]
The metabolite formation was analyzed with an Alliance 2695 Separations Module (Waters […]
The absorbance was read at 570 nm using a Spectramax i5 microplate reader. Results were expressed as percentage of control.

In the case of `CCC(=O)N1CCC[C@@H](N(C)c2ncnc3[nH]c4cc(Br)ccc4c23)C1` [Compound (R)-28, (R)-1-(3-((7-bromo-9H-pyrimido[4,5-b]indol-4-yl)(methyl)amino)piperidin-1-yl)propan-1-one], the “unchanged inhibitor detected after incubation” value was approximately 70%.
